Drawing on patent US10428080B2, “TBK/IKK inhibitor compounds and uses thereof” (Merck Patent GmbH, priority 2015, dated 2019), this text covers IC50 for 16 compounds.

One test addresses T1, TBK1 (Homo sapiens, UniProt Q9UHD2).
T1 sequence (Q9UHD2 1-729): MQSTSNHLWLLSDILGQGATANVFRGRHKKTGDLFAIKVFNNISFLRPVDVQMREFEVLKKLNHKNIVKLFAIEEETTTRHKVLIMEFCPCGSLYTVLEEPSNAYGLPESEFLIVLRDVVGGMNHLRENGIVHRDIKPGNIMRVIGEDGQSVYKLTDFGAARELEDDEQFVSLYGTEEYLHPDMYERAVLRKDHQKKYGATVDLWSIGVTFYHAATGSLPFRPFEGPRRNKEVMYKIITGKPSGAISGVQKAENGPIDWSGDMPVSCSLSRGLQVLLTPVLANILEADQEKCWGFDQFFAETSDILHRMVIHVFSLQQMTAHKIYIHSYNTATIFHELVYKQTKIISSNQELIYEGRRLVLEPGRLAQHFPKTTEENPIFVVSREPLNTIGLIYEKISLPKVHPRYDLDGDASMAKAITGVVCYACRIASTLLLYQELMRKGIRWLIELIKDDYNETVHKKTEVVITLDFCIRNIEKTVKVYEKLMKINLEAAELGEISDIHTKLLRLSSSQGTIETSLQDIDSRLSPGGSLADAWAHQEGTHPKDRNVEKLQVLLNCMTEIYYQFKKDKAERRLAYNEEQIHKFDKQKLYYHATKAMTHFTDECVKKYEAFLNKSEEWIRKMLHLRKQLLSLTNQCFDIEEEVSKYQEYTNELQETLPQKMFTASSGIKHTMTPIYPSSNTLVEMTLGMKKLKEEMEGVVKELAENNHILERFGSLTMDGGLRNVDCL
Nature of the test: TBK Biochemical Assay. Conditions: read-out: TBK1 IC50. In a few lines:
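Caliper LabChip mobility-shift readout of substrate and product after 90 min of TBK1 reaction at 25° C and stop-buffer addition. Compounds tested in 1:4 serial dilution over 10 points from 30 uM final at 1% DMSO; staurosporine 10 uM final defines full inhibition.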

In a further test the target is T2, IKKε (Homo sapiens, UniProt Q14164).
T2 sequence (Q14164 1-716): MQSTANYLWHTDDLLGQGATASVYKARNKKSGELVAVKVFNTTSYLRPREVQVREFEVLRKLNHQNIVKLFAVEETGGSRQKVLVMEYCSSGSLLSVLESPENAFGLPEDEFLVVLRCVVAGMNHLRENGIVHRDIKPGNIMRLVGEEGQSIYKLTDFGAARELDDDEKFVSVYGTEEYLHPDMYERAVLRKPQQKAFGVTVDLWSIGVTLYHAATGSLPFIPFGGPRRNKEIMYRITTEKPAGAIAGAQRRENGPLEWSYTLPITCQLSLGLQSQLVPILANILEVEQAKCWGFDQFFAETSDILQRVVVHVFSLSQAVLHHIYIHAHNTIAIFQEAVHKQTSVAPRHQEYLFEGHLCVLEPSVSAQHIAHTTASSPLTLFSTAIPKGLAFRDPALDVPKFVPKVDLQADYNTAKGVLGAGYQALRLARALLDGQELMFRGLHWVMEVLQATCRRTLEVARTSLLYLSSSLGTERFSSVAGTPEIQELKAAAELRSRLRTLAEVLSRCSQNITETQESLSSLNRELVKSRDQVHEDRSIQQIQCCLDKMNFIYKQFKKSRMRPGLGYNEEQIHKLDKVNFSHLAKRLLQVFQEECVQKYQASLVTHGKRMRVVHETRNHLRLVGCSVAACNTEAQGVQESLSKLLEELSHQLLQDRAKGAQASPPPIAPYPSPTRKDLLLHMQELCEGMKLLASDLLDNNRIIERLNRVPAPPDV
The test can be described thus: IKKe Biochemical Assay. The note with it: read-out: IKKε IC50. An outline of the steps:
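Activity was measured as mobility-shift separation of phosphorylated from unphosphorylated substrate on a LabChip EZ Reader. Compound was titrated from 30 uM final in 10 points, 1:4 steps, with 1% DMSO, and enzyme plus substrate reacted 90 min at 25° C before stop buffer. Control wells held 10 uM staurosporine.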

In test [1] the test system is phosphorylation of the IRF-3 protein in MDA-MB-468 cells. The test can be described thus: pIRF3 immunocytochemistry cell based assay. The note with it: Homo sapiens; MDA-MB-468 cells, Poly(I:C) stimulation; read-out: pIRF3 IC50. An outline of the steps: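 After 2 h stimulation with Poly(I:C) (10 ug/ml), following 1 h compound pre-treatment (10-point, 3-fold dilution, top 10 uM), MDA-MB-468 cells were fixed and stained with anti-pIRF3 antibody. pIRF3 fluorescence was normalized to PI staining or cell count on an Acumen cytometer. IC50 curves were derived from this.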

Where a name gives a salt, the structure may show the parent alone. Some results are limits rather than exact numbers.

The term IC50 denotes the point on the concentration scale where inhibition reaches its midpoint. `COc1cc(C(=O)N2CC3CCC(C2)O3)ccc1-c1cc2nccc(-c3ccc(OC4CCOCC4)c(C#N)c3)c2o1` [Compound 58, 5-{2-[2-Methoxy-4-(8-oxa-3-aza-bicyclo[3.2.1]octane-3-carbonyl)-phenyl]-furo[3,2-b]pyridin-7-yl}-2-(tetrahydro-pyran-4-yloxy)-benzonitrile]: the half-maximal inhibitory concentration (IC50) (on TBK1; at IKKε; in test [1]) was less than 100 nM in each case.
As for `COc1cc(C(=O)NCC2(C)COC2)ccc1-c1cc2nccc(-c3ccc(OC4CCOCC4)c(C#N)c3)c2o1` [Compound 59, 4-{7-[3-Cyano-4-(tetrahydro-pyran-4-yloxy)-phenyl]-furo[3,2-b]pyridin-2-yl}-3-methoxy-N-(3-methyl-oxetan-3-ylmethyl)-benzamide], the IC50 on TBK1 was less than 100 nM; at IKKε it was less than 100 nM; in test [1], 100 to 1000 nM.
For the compound `COc1cc(C(=O)NC2CCNCC2)ccc1-c1cc2nccc(-c3ccc(OC4CCOCC4)c(C#N)c3)c2o1` [Compound 62, 4-{7-[3-Cyano-4-(tetrahydro-pyran-4-yloxy)-phenyl]-furo[3,2-b]pyridin-2-yl}-3-methoxy-N-piperidin-4-yl-benzamide hydrochloride], the figures for the IC50 (at TBK1; on IKKε; in test [1]) were less than 100 nM, less than 100 nM and 100 to 1000 nM, respectively.
On to `COc1cc(C(=O)NC(C)(C)CN(C)C)ccc1-c1cc2nccc(-c3ccc(OC4CCOCC4)c(C#N)c3)c2o1` [Compound 63, 4-{7-[3-Cyano-4-(tetrahydro-pyran-4-yloxy)-phenyl]-furo[3,2-b]pyridin-2-yl}-N-(2-dimethylamino-1,1-dimethyl-ethyl)-3-methoxy-benzamide], for which the concentration for half-maximal inhibition (IC50) (on TBK1; on IKKε; in test [1]) was less than 100 nM throughout.
Consider `COc1cc(C(=O)NC2CCN(C)C2)ccc1-c1cc2nccc(-c3ccc(OC4CCOCC4)c(C#N)c3)c2o1` (stereo not drawn) [Compound 64, 4-{7-[3-Cyano-4-(tetrahydro-pyran-4-yloxy)-phenyl]-furo[3,2-b]pyridin-2-yl}-3-methoxy-N-(1-methyl-pyrrolidin-3-yl)-benzamide], for which the values for the half-inhibitory concentration (IC50) (on TBK1; on IKKε; in test [1]) were less than 100 nM, less than 100 nM and 100 to 1000 nM, respectively.
On to `COc1cc(C(=O)NC2C3COCC32)ccc1-c1cc2nccc(-c3ccc(OC4CCOCC4)c(C#N)c3)c2o1` (stereo not drawn) [Compound 65, 4-{7-[3-Cyano-4-(tetrahydro-pyran-4-yloxy)-phenyl]-furo[3,2-b]pyridin-2-yl}-3-methoxy-N-(3-oxa-bicyclo[3.1.0]hex-6-yl)-benzamide], for which the concentration for half-maximal inhibition (IC50) was less than 100 nM at TBK1, less than 100 nM on IKKε and 100 to 1000 nM in test [1].
As to `COc1cc(C(=O)NNC(=O)OC(C)(C)C)ccc1-c1cc2nccc(-c3ccc(OC4CCOCC4)c(C#N)c3)c2o1` [Compound 67, N′-(4-{7-[3-Cyano-4-(tetrahydro-pyran-4-yloxy)-phenyl]-furo[3,2-b]pyridin-2-yl}-3-methoxy-benzoyl)-hydrazinecarboxylic acid tert-butyl ester], the IC50 at TBK1 was less than 100 nM; on IKKε, less than 100 nM; in test [1], 100 to 1000 nM.
Take `COc1cc(C(=O)NC2CCC(O)C2)ccc1-c1cc2nccc(-c3ccc(OC4CCOCC4)c(C#N)c3)c2o1` (stereo not drawn) [Compound 68, 4-{7-[3-Cyano-4-(tetrahydro-pyran-4-yloxy)-phenyl]-furo[3,2-b]pyridin-2-yl}-N-(3-hydroxy-cyclopentyl)-3-methoxy-benzamide]: the IC50 was less than 100 nM at TBK1, less than 100 nM at IKKε and 100 to 1000 nM in test [1].
Take `COc1cc(C(=O)NCC2(F)COC2)ccc1-c1cc2nccc(-c3ccc(OC4CCOCC4)c(C#N)c3)c2o1` [Compound 69, 4-{7-[3-Cyano-4-(tetrahydro-pyran-4-yloxy)-phenyl]-furo[3,2-b]pyridin-2-yl}-N-(3-fluoro-oxetan-3-ylmethyl)-3-methoxy-benzamide]: the half-maximal inhibitory concentration (IC50) at TBK1 was less than 100 nM; on IKKε, less than 100 nM; in test [1], 100 to 1000 nM.
Regarding `COc1cc(C(=O)N2CCC(CO)CC2)ccc1-c1cc2nccc(-c3ccc(N4CC[C@H](F)C4)c(C#N)c3)c2o1` [Compound 70, 2-((S)-3-Fluoro-pyrrolidin-1-yl)-5-{2-[4-(4-hydroxymethyl-piperidine-1-carbonyl)-2-methoxy-phenyl]-furo[3,2-b]pyridin-7-yl}-benzonitrile], the IC50 was less than 100 nM on TBK1, less than 100 nM at IKKε and 100 to 1000 nM in test [1].
On to `COc1cc(C(=O)N(C)C)ccc1-c1cc2nccc(-c3ccc(OC4CCNCC4(F)F)c(C#N)c3)c2o1` (stereo not drawn) [Compound 71, 4-{7-[3-Cyano-4-(3,3-difluoro-piperidin-4-yloxy)-phenyl]-furo[3,2-b]pyridin-2-yl}-3-methoxy-N,N-dimethyl-benzamide hydrochloride], for which the IC50 (at TBK1; at IKKε; in test [1]) was less than 100 nM throughout.
Regarding `COc1cc(C(=O)NC2CN3CCC2CC3)ccc1-c1cc2nccc(-c3ccc(N4CC[C@H](F)C4)c(C#N)c3)c2o1` (stereo partly drawn) [Compound 72, N-(1-Aza-bicyclo[2.2.2]oct-3-yl)-4-{7-[3-cyano-4-((S)-3-fluoro-pyrrolidin-1-yl)-phenyl]-furo[3,2-b]pyridin-2-yl}-3-methoxy-benzamide], the IC50 on TBK1 was less than 100 nM; on IKKε it was less than 100 nM; in test [1], 100 to 1000 nM.
Regarding `COc1cc(C(=O)N2CC3CN(C)CC3C2)ccc1-c1cc2nccc(-c3ccc(NC4CCOCC4)c(C#N)c3)c2o1` (stereo not drawn) [Compound 73, 5-{2-[2-Methoxy-4-(5-methyl-hexahydro-pyrrolo[3,4-c]pyrrole-2-carbonyl)-phenyl]-furo[3,2-b]pyridin-7-yl}-2-(tetrahydro-pyran-4-ylamino)-benzonitrile], the IC50 (on TBK1; on IKKε; in test [1]) was less than 100 nM each time.
For `COc1cc(C(=O)NC2CC(O)C2)ccc1-c1cc2nccc(-c3ccc(OC4CCOCC4)c(C#N)c3)c2o1` (stereo not drawn) [Compound 75, 4-{7-[3-Cyano-4-(tetrahydro-pyran-4-yloxy)-phenyl]-furo[3,2-b]pyridin-2-yl}-N-(3-hydroxy-cyclobutyl)-3-methoxy-benzamide], the results for the half-maximal inhibitory concentration (IC50) (at TBK1; at IKKε; in test [1]) were less than 100 nM, less than 100 nM and 100 to 1000 nM, respectively.
Take `COc1cc(C(=O)N2CCC(CO)C2)ccc1-c1cc2nccc(-c3ccc(N4CC[C@H](F)C4)c(C#N)c3)c2o1` (stereo partly drawn) [Compound 76, 2-((S)-3-Fluoro-pyrrolidin-1-yl)-5-{2-[4-(3-hydroxymethyl-pyrrolidine-1-carbonyl)-2-methoxy-phenyl]-furo[3,2-b]pyridin-7-yl}-benzonitrile]: the IC50 is less than 100 nM at TBK1, less than 100 nM at IKKε and 100 to 1000 nM in test [1].
As for `COc1cc(C(=O)N2CC(F)(F)C2)ccc1-c1cc2nccc(-c3ccc(OC4CCOCC4)c(C#N)c3)c2o1` [Compound 77, 5-{2-[4-(3,3-Difluoro-azetidine-1-carbonyl)-2-methoxy-phenyl]-furo[3,2-b]pyridin-7-yl}-2-(tetrahydro-pyran-4-yloxy)-benzonitrile], the half-maximal inhibitory concentration (IC50) is less than 100 nM on TBK1, less than 100 nM at IKKε and 100 to 1000 nM in test [1].
